Measurements published in PMC8861115, “Characterization and structural analyses of a novel glycosyltransferase acting on the β-1,2-glucosidic linkages” (The Journal of Biological Chemistry, 2022).
Substitutions are numbered along the chain they refer to.

Columns and labels:
IaSGT (IALB_1185) [1] = molecular target: T1, IaSGT (IALB_1185) (Ignavibacterium album, UniProt I0AIT9); assay: hexokinase/G6PDH thio-NAD+ coupled glucose release; format: biochemical; conditions: acceptor; donor Sop2 fixed 1 mM; pH 5.0, 37 °C
T1 construct: full length (no N-terminal signal peptide), his6-tag fusion from pET30a(+) NdeI/XhoI, E. coli BL21(DE3); homodimer
T1 sequence (I0AIT9 1-716): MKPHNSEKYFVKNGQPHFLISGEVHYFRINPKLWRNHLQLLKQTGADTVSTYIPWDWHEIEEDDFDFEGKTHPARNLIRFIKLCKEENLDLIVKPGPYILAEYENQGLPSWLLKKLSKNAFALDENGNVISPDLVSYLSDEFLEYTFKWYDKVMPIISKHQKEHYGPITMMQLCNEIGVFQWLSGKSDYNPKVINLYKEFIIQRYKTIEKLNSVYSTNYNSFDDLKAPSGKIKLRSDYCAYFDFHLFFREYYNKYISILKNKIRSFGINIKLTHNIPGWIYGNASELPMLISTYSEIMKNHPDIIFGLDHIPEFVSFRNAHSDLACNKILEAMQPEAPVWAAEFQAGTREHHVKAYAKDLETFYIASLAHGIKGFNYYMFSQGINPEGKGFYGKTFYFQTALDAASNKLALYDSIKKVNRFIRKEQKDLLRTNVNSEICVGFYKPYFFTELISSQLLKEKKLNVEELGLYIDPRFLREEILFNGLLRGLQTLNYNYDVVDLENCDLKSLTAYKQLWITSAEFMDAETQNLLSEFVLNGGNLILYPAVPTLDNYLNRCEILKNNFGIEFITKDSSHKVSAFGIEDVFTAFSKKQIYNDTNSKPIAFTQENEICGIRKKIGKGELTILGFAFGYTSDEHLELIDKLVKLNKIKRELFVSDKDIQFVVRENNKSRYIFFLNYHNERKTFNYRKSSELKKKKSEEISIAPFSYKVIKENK
Text: hexokinase/G6PDH thio-NAD+ coupled glucose release on IaSGT (IALB_1185)

IaSGT (IALB_1185) [2] = molecular target: T2, IaSGT (IALB_1185) (Ignavibacterium album, UniProt I0AIT9, E343G); assay: X-ray crystal structure of complex; format: binding; conditions: subsites -1 and +1, subunit A only
T2 construct: full length (no N-terminal signal peptide), his6-tag fusion from pET30a(+) NdeI/XhoI, E. coli BL21(DE3); homodimer
T2 sequence (I0AIT9 1-716 E343G): T1 sequence (I0AIT9 1-716) with E343G

Row | SMILES | Km (IaSGT (IALB_1185) [1]) | X-ray crystal structure of complex (IaSGT (IALB_1185) [2])
1 | N#C[C@H](O[C@@H]1O[C@H](CO[C@@H]2O[C@H](CO)[C@@H](O)[C@H](O)[C@H]2O)[C@@H](O)[C@H](O)[C@H]1O)c1ccccc1 [Amygdalin] | 150 ± 20 µM | 
2 | OC[C@H]1NC[C@H](O)[C@@H](O)[C@@H]1O [DNJ, 1-deoxynojirimycin] |  | The electron densities of DNJ molecules were observed only in subunit A in the E343G mutant
